One series relates to pigs. The following applies: phosphorus digestibility, Veevoedertabel 2000; cited from earlier work.
Series [1] in a line: Calcium solubility in water (ICP). Format: physicochemical. The following applies: tricalcium phosphate experiment, absolute content. How it is done: (§1) At room temperature, 3 g sample and 300 ml distilled water have been agitated for 30 min. Subsequently the solution has been diluted to 500 ml and stirred. Then the solution has been filtered to remove the remaining solids. The Ca^2+ content of the solution was determined flame photometrically by means of ICP, and the amount of dissolved phosphorus was determined by the Quimociac method. These two methods are well known in the technical field.

The nature of series [2]: Phosphorus solubility in water (Quimociac method). Type of series: physicochemical. The following applies: tricalcium phosphate experiment, absolute content. How it is done:
as §1

Turning to `O=P([O-])([O-])O.[Ca+2]` [Dicalcium phosphate, anhydrate], in the series on pigs, the “Dig. Coeff. for pigs Average” value is 0.64.

With Dicalcium phosphate, dihydrate, the “Dig. Coeff. for pigs Average” value in the series with pigs was 0.70.

Take “hydroxyl apatite [Hydroxyl apatite (ref)]”: the “% Ca water sol.” value in series [1] was less than 0.1%. Also, the “% P water sol.” value in series [2] is on record as less than 0.1%.

Source of the values: US20060141098A1, “Nutritional additive for animals” (Kemira Grow How AB, priority 2002, published 2006).
